Source: patent US20030187056A1, “Live cell procedures to identify to identify compounds modulating intracellular distribution of phosphodiesterase( pde) enzymes” (priority 2000, published 2003)

Assays:
HSPDE4A4-EGFP [1] = target: T1, HSPDE4A4-EGFP (Homo sapiens, UniProt P27815); assay: Spot formation in CHO cells transfected with HSPDE4A4-EGFP; assay type: cell-based
T1 construct: expressed in transfected cells
Description: Chinese hamster ovary cells (CHO), are transfected with the plasmids described in Example 1 above using the transfection agent FuGENE™ 6 (Boehringer Mannheim Corp, USA) according to the method recommended by the suppliers. Stable transfectants are selected using 1 mg/ml G418 sulphate (Calbiochem) in the growth medium (HAM's F12 nutrient mix with Glutamax-1, 10% foetal bovine serum (FBS), 100 μg penicillin-streptomycin mixture ml^−1 (GibcoBRL, supplied by Life Technologies, Denmark). Cell are cultured at 37° C. in 100% humidity and conditions of normal atmospheric gases supplemented with 5% CO2.
For fluorescence microscopy, cells are allowed to adhere to Lab-Tek chambered coverglasses (Nalge Nunc International, Naperville USA) for at least 24 hours and are then cultured to about 80% confluence. Cells can also be grown in plastic 96-well plates (Polyfiltronics Packard 96-View Plate or Costar Black Plate, clear bottom; both types tissue culture treated) for imaging purposes. Prior to experiments, the cells are cultured over night without G418 sulphate in HAM F-12 medium with glutamax, 100 μg penicillin-streptomycin mixture ml^−1 and 10% FBS. This medium has low autofluorescence enabling fluorescence microscopy of cells straight from the incubator. For certain tests requiring medium of defined composition, particularly with regard to the presence of specific cell growth factors, the HAM's culture medium is replaced prior to imaging with a buffered saline solution (KRW buffer) containing (in mM) 3.6 KCl, 140 NaCl, 2 NaHCO3, 0.5 NaH2PO4, 0.5 MgSO4, 1.5 CaCl2, 10 Hepes, 5 glucose, pH7.4.
Changes in cellular distribution of a transfected probe can be imaged and quantified in an automated fashion. For this purpose cells are cultured to near 80% to 90% confluence in coverglass chambers or plastic 96-well plates, given the relevant treatment and allowed to respond. At the end of the response period, cells are fixed in 4% formaldehyde buffer (Lillies fixative buffer, pH7.0: Bie and Berntsen A/S, Denmark) for 30 minutes to 2 hours, then washed in phosphate buffered saline (PBS, Life Technologies, Denmark). Nuclear DNA is stained with 1 μM Hoechst 33258 (Molecular Probes, Eugene, Oreg., USA) in PBS for 10 minutes at 25° C., then washed twice in PBS. Automated images are collected on a Nikon Diaphot 300 (Nikon, Japan) using a Nikon Plan Fluor 20X/0.5NA objective lens. The basic microscope is fitted with a motorised specimen stage and motorised focus control (Prior Scientific, Fulbourn, Cambridge UK), excitation filter wheel (Sutter Instruments, Novato Calif. USA) and Photometrics PXL series camera with a KAF1400 CCD chip (Photometrics, Tucson, Ariz. USA), each of these items being under the control of an Macintosh 7200/90 computer (Apple Computer, Cupertino, Calif. USA). Automation of stage positioning, focus, excitation filter selection, and image acquisition is performed using macros written in-house, running under IPLab Spectrum for Macintosh (Scanalytics, Fairfax, Va. USA). Fluorescence illumination comes from a 100 W HBO lamp. Images are collected in pairs, the first using a 340/10 nm excitation filter, the second with a 475RDF40 excitation filter (Chroma, Brattleboro, Vt.). Both images are collected via the same dichroic and emission filters, which are optimised for EGFP applications (XF100 filter set, Omega Optical, Brattleboro, Vt.). While the choice of filters for imaging the nuclear stain (Hoechst 33258) is not well matched to that dye's spectral properties, resulting in lower image intensity, it greatly improves the throughput of the procedure by allowing both images to be collected using the same dichroic and emission filter. This eliminates any image registration problems and focus shifts which would result from using two different filter sets, which would require more steps in the acquisition procedure and more extensive image processing to overcome.

HSPDE4A4-ΔLR2-EGFP = target: T2, HSPDE4A4-ΔLR2-EGFP (Homo sapiens, UniProt P27815, DEL313-320); assay: Spot formation in CHO cells transfected with HSPDE4A4-ΔLR2-EGFP; assay type: cell-based; details: 30 to 0.01 μM
T2 construct: expressed in transfected cells
T2 sequence (P27815 with tags, fused parts or gaps DEL313-320): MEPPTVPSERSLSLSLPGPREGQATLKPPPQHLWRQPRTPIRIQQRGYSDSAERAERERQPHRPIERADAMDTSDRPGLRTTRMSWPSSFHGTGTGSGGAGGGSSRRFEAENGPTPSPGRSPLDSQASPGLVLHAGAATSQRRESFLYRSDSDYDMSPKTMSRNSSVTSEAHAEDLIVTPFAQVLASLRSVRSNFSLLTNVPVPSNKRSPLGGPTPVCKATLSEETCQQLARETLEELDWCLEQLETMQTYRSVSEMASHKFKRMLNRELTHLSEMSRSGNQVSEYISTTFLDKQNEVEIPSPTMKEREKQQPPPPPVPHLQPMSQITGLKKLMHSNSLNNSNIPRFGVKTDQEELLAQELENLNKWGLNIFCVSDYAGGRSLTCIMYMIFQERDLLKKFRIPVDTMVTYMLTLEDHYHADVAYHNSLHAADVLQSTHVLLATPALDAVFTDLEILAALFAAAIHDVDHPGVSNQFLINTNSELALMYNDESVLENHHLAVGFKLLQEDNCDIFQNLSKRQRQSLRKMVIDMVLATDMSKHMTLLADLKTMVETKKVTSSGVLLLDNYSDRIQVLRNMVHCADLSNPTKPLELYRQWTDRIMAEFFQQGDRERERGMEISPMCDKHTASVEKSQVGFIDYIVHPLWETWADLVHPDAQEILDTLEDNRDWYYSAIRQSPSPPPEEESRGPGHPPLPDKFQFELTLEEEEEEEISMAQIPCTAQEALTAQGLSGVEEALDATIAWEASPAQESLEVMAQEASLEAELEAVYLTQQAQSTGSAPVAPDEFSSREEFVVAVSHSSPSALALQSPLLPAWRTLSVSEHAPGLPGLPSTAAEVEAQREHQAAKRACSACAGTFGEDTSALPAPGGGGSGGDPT
Description: Stably transfected (non-clonal) cells are allowed to adhere to chambered coverglasses in HAM's F12 medium containing 10% FBS.
(§1) The cells are then fixed with 4% formaldehyde buffer (pH7) for 1 hour, washed with PBS and stained with 1 μM Hoechst 33258 in PBS for 10 minutes at 25° C., then washed twice in PBS. Automated images are collected and analysed for the number of spots per cell as described in Example 2.

HSPDE4A4-H506N-EGFP = target: T3, HSPDE4A4-H506N-EGFP (Homo sapiens, UniProt P27815, H506N); assay: Spot formation in CHO cells transfected with HSPDE4A4-H506N-EGFP; assay type: cell-based; details: clonal cells, over the concentrations tested
T3 construct: expressed in transfected cells
T3 sequence (P27815 whole entry H506N): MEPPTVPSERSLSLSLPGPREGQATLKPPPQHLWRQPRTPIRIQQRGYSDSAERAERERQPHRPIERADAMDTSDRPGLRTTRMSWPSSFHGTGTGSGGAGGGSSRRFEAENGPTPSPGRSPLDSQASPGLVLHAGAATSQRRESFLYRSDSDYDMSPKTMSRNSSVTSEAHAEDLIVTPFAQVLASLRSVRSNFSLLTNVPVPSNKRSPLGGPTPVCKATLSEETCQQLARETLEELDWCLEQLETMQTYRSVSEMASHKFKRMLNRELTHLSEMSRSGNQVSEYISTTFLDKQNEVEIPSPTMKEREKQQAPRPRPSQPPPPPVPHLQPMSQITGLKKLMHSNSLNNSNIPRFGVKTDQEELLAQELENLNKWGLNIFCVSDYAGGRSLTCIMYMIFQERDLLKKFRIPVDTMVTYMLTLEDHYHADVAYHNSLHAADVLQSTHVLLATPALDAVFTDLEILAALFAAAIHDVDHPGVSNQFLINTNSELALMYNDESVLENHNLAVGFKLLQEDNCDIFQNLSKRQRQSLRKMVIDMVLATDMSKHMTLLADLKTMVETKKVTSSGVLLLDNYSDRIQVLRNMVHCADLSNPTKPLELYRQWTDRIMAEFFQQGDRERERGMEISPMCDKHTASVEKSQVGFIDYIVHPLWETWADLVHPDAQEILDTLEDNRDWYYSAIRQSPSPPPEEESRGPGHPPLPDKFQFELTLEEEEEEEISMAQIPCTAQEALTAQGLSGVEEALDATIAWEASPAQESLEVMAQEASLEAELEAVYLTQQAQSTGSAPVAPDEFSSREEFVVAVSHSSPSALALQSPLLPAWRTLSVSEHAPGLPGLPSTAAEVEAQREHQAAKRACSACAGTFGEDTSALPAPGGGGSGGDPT
Description: as §1
as §1, with “Cells are grown in HAM's F12 medium plus 10% FBS plus various concentrations of inhibitors for 23.5 hours. The” for “The”

HSPDE4A4-EGFP [2] = target: T1, HSPDE4A4-EGFP; assay: Dispersal of preformed Rolipram-induced spots, HSPDE4A4-EGFP CHO cells; assay type: cell-based; details: yes/no
Description: For the microscopic assessment of spot dispersal, stably transfected (non-clonal) cells transfected with the HSPDE4A4-EGFP probe are allowed to adhere to chambered coverglasses in HAM's F12 medium containing 10% FBS. […] Chambered coverglasses are then transferred to a Zeiss 135 inverted microscope for time lapse imaging as described in Example 2, above. At a given point after starting an experiment, a mixture of IBMX and forskolin is added to give final concentrations of 1 mM and 50 μM, respectively. Images are captured at regular intervals to form a time lapse sequence of the response, also as described in Example 2.
The plate is then run in the FLIPR system at 37° C., with addition of IBMX and forskolin to all wells at final concentrations of 500 μM and 50 μM respectively after the first minute. The experiment is continued for a further 45 minutes, readings being taken at intervals of 1 minute.
Non-clonal CHO cells stably transfected with the HSPDE4A4-EGFP probe are allowed to adhere to chambered coverglasses in HAM's F12 medium containing 10% FBS and to grow for 24 hours.
Clonal CHO cells stably transfected with the HSPDE4A4-EGFP probe are allowed to adhere to chambered coverglasses in HAM's F12 medium containing 10% FBS and to grow for 5 days without change of medium, which by this time is serum-depleted.
Individual wells are then treated with either 50 μM forskolin plus 500 μM IBMX or 200 nM PMA plus 2 μM ionomycin.

HSPDE4A1-EGFP = target: T4, HSPDE4A1-EGFP (Homo sapiens, UniProt P27815); assay: Competitive assay: reversal of Rolipram-induced spot dispersal, HSPDE4A1-EGFP CHO cells; assay type: cell-based; details: predicted
T4 construct: the ca. 1.95 kb coding region of HSPDE4A1 (GenBank Acc.no. U97584) is amplified; expressed in transfected cells
T4 sequence (P27815 1-647 isoform P27815-4): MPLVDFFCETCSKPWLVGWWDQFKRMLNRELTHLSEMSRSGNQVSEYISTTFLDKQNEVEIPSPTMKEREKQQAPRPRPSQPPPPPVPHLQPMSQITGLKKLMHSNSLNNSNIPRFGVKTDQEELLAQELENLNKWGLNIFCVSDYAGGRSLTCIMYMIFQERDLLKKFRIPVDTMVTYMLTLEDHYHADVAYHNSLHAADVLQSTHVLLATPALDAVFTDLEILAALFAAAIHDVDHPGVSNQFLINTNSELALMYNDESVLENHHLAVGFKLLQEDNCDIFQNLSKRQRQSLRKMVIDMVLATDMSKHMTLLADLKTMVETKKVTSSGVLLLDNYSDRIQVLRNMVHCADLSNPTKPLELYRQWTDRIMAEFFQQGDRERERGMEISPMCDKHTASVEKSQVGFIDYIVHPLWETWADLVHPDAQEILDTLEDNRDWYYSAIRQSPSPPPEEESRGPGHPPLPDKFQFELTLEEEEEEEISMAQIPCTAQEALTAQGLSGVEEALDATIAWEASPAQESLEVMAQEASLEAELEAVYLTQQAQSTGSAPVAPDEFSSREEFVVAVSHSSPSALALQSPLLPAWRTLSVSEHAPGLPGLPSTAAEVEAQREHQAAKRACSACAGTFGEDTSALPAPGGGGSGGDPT

PDE4 = details: yes/no; cited from earlier work
[3] = human, in vivo; cited from earlier work

T1 sequence (P27815 whole entry): as the sequence (P27815 whole entry H506N) above, with N506H counted along it

With `COc1ccc([C@]2(C#N)CC[C@@H](C(=O)O)CC2)cc1OC1CCCC1` [Ariflo®] the “formation of spots, compound alone (in words)” value (HSPDE4A4-EGFP [1]; observed up to 24 hours) was “does not by itself produce spots”, the “Formation of PDE4A4 spots” value (HSPDE4A4-EGFP [1]; yes/no) was “no” and the “formation of spots, compound alone (in words)” value (HSPDE4A4-ΔLR2-EGFP) was “does not by itself produce spots”. The “spot formation response (in words)” value (HSPDE4A4-H506N-EGFP) was “does not by itself produce spots”, the “Removal of Rolipram-induced PDE4A4-spots” value (HSPDE4A4-EGFP [2]) was “yes” and the “Reversal of Rolipram-induced removal of PDE4A1 spots (predicted, not tested)” value (HSPDE4A1-EGFP) was “yes”. For the same compound, the “Inhibition of PDE4 catalytic activity” value (PDE4) was “yes”, the Clinical effect [3] was “anti-” and the Emesis [3] was “no”.
